Experimental data taken from patent publication US20240325274A1, “SUPRAMOLECULAR AMINO ACID OR SALT THEREOF, AND PREPARATION METHOD THEREFOR AND APPLICATION THEREOF” (SUZHOU OULIT BIOPHARM CO., LTD., priority 2021, published 2024).

How the values were obtained:
[1] = Detergency evaluation: color cosmetics on arms of 5 subjects; design: key: 5 denotes the best; 3 denotes moderate; 1 denotes the worst; conditions: 1 g of 4% aqueous solution with 0.54% sodium hydroxide; graded by 5 subjects
From the text: (§1) Three sets of color cosmetics (lipstick+eyeliner) were applied to the arms of 5 subjects with similar areas and thicknesses. The cosmetics were washed with the aqueous solutions in Table 6 (1 g of each) and then rinsed with tap water (the detergency was graded by the 5 subjects comprehensively).

[2] = pH, appearance and smell of neutralized aqueous solutions; type: physicochemical; conditions: 4% in water with 0.54% sodium hydroxide (Table 6)
Method: as §1
The preparation procedures are as follows: Two 500-g beakers were weighed on an electronic balance, and the weights of the beakers were recorded; a proper amount of deionized water was weighed and added to the beakers according to the formula, and the beakers were heated to 75-80° C. in a water bath. The temperature of the water in the beaker was measured by a thermometer. […] At the start of the stirring, a proper amount of arginine was added to beaker (1) and a proper amount of 10% aqueous sodium hydroxide solution was added to beaker (2). The mixtures were stirred for 1 min. The temperature of the beakers (1) and (2) was reduced to 25° C. by running tap water. The evaporated water in the two beakers in the preparation process was compensated by cooled deionized water to 100% on an electronic balance. The pH of the products in the beaker (1) and (2) was measured, the appearance was observed, and the smell was confirmed.

C. albicans (ATCC 10231) = conditions: 10 g in 100 mL neutralized with NaOH to pH 6-7
Method: (§2) A 10% aqueous sodium hydroxide solution was added to neutralize the mixture to pH 6-7. The volume of the aqueous solution was brought to 100 mL. Fruits pre-inoculated with common microorganisms such as Staphylococcus aureus, Escherichia coli, Pseudomonas aeruginosa, Candida albicans, and the like were soaked in 5 mL of the stock solution (the solution neutralized by sodium hydroxide) for a certain period of time, and washed with clean water. The microorganism residues on the fruits were determined.

E. coli (8099) = test system: E. coli (8099)
Method: as §2

S. aureus (ATCC 6538) = conditions: 10 g in 100 mL neutralized with NaOH to pH 6-7
Method: as §2

[3] = Method: Two 100-g aliquots of bok choy pre-sprayed with pesticides methamidophos and acephate were taken. One was directly soaked in 1 L of clean water and detected for the pesticide residues, denoted as “before washing”. […] The procedures are as follows:
A 10% aqueous sodium hydroxide solution was added to neutralize the mixture to pH 6-7. The volume of the aqueous solution was brought to 100 mL. The second 100-g aliquot of bok choy pre-sprayed with pesticides methamidophos and acephate was shredded, soaked in 5 mL of the stock solution for 2 min, washed with 500 mL of clean water, and detected for the pesticide residues.

[4] = cloths soaked in 5 mL stock solution for 2 min, washed with water, aired
Method: A 10% aqueous sodium hydroxide solution was added to neutralize the mixture to pH 6-7. The volume of the aqueous solution was brought to 100 mL. Cotton cloths of 10 square centimeters with peculiar smell (smell, engine oil smell, odor, etc.) were soaked in 5 mL of stock solution for 2 min, taken out, washed with water, and dried by airing.

[5] = Qualitative household application test; conditions: 12% aqueous solution of sodium salt
From the text: For the surface of the electric rice cookers, especially the sticky bottoms, the greasy stains on the surface were wiped several times by using rags or paper towels soaked in the solutions and then wiped by using a clean cloth.

| Compound | Detergency [1] | Appearance [2] | pH value [2] | Inhibition of C. albicans (ATCC 10231), % (after 5 minutes) (C. albicans (ATCC 10231)) [%] | Inhibition of E. coli (8099), % (after 2 minutes) (E. coli (8099); after 2 minutes, 10 g in 100 mL neutralized with NaOH to pH 6-7, fruits soaked in 5 mL stock solution) [%] | Inhibition of E. coli (8099), % (after 5 minutes) (E. coli (8099); after 5 minutes, 10 g in 100 mL neutralized with NaOH to pH 6-7) [%] | Inhibition of S. aureus (ATCC 6538), % (after 2 minutes) (S. aureus (ATCC 6538); after 2 minutes) [%] | Inhibition of S. aureus (ATCC 6538), % (after 5 minutes) (S. aureus (ATCC 6538); after 5 minutes) [%] | Acephate, Percentage removal, % ([3]; 2 min of treatment) [%] | Methamidophos, Percentage removal, % ([3]; 2 min of treatment) [%] | Methamidophos residue, After cleaning ([3]; bok choy soaked in 5 mL stock solution for 2 min, washed with 500 mL clean water, before washing 16.42 mg/kg) [mg/kg] | Acephate residue, After cleaning ([3]; bok choy soaked in 5 mL stock solution for 2 min, washed with 500 mL clean water, before washing 37.57 mg/kg) [mg/kg] | Deodorization effect on cotton cloths [4] | Detergency on surfaces of cooking benches and kitchen hoods [5] |
| --- | --- | --- | --- | --- | --- | --- | --- | --- | --- | --- | --- | --- | --- | --- |
| CCCCCCCCCCCC(=O)N[C@@H](C)C(=O)O [Comparative Example 2, N-lauroyl-L-alanine] | 1 | Transparent | 6.56 |  |  |  |  |  |  |  |  |  |  |  |
| CCCCCCCCCCCC(=O)N[C@@H](C)C(=O)O [Comparative Example 1, N-lauroyl-L-alanine] | 3 | Transparent | 8.07 |  |  |  |  |  |  |  |  |  |  |  |
| N-lauroyl-L-alanine supramolecule [Example 1] | 5 |  |  | 100 | 98.5 | 100 | 100 | 100 | 86.37 | 76.19 | 3.91 | 5.12 | the smells on the cotton cloths were completely eliminated | excellent detergency |
